In patent EP4782453A1 (Beyang Therapeutics Co., Ltd., priority 2023, dated 2025) one finds IC50 data, which are given here for nine compounds.

Read-outs that look alike come from different tables or passages of the source.

One experiment has as its target T1, Menin-MLL (Homo sapiens, UniProt O00255).
T1 construct: His-Menin (M1-L615 end); purchased BIORTUS BP9210
T1 sequence (O00255 1-615 isoform O00255-1): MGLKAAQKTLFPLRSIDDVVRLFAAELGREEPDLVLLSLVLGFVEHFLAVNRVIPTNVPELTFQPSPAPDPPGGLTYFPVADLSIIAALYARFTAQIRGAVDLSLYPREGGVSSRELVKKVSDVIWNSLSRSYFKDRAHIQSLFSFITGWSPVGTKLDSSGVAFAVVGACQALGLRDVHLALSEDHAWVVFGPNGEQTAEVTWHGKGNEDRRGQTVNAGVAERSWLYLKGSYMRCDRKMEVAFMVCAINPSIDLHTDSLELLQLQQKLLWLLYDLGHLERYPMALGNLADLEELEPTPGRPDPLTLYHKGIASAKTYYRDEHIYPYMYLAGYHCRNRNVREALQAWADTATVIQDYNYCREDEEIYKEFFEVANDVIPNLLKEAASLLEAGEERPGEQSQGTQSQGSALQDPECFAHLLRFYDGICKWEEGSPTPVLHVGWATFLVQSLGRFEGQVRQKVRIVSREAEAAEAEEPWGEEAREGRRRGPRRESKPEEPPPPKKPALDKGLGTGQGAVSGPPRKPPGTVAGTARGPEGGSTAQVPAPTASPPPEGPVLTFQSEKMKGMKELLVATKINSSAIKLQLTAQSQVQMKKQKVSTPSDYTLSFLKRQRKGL
Description: Inhibitory activity against Menin-MLL binding (fluorescence polarization). Particulars: 150 nM His-Menin, 15 nM FITC-MLL, 25°C for 60 min. Summed up:
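Fluorescence polarization competition: compound and 150 nM His-tagged menin (residues M1-L615) sit 15 min at 25 °C in pH 7.5 HEPES buffer with NaCl, DTT and BSA; 15 nM FITC-labelled MLL peptide then binds for 60 min. IC50 fitted sigmoidally from mP values, duplicate wells.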

The test system of experiment [1] is MV-4-11 (carrying MLL-AF4). In words: Inhibition of proliferation of human tumor cells (Alamar Blue, 7 days), MV-4-11. In kind it is cell-based. Particulars: Homo sapiens, MV4-11, 168 h, MV-4-11 cells (carrying MLL-AF4), method calls the value GI50. The method, boiled down:
(§1)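 Alamar Blue fluorescence at Day 7, normalised between 0.1% DMSO wells on Day 7 (high) and Day 0 (low), gives GI50. Cells grew with compound at 37°C, 5% CO2; seeding 4,000 cells/well for MV-4-11 and MOLM-13, 3,000 for KG-1a.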

In the next experiment the test system is KG-1a (wild-type MLL). Description: Inhibition of proliferation of human tumor cells (Alamar Blue, 7 days), KG-1a control cell line. As to conditions: 168 h, KG-1a cells (wild-type MLL, control cell line), method calls the value GI50. It counts as cell-based. An excerpt: Experimental Example 2: Evaluation of Inhibitory Activity of Compounds Against Proliferation of Human Tumor Cells
• Human acute lymphoblastic leukemia cells MV-4-11, purchased from American Type Culture Collection, Catalog Number: CRL-9591; • Human acute myeloid leukemia cells MOLM-13, purchased from COBIOER BIOSCIENCES CO., LTD, Catalog Number: CBP60678; • Human acute myeloid leukemia cells KG-1a, purchased from American Type Culture Collection, Catalog Number: CCL-246.1; • Inverted Microscope, purchased from Olympus Tokyo; • Countess™ Automated Cell Counter, purchased from Invitrogen, Model: C10281; and • Multilabel Reader, purchased from Bio-Tek, Model: Synergy HT.
MV-4-11 cells were cultured in an IMDM medium containing 10% fetal bovine serum, KG-a cells were cultured in an IMDM medium containing 20% fetal bovine serum, or MOLM-13 cells were cultured in an RPMI-1640 medium containing 20% fetal bovine serum, each supplemented with 100 U·mL^-1 penicillin and 100 µg·mL^-1 streptomycin. These cells were cultured at 37°C with 5% CO2. The suspensions of individual cell lines were prepared in their respective media and seeded into 96-well plates at a density of 4,000 cells/well for MV-4-11 and MOLM-13 cells, or 3,000 cells/well for KG-1a cells. On the day of the experiment, a compound stock solution was diluted in a 3-fold or 4-fold gradient using DMSO. Each gradient-diluted stock solution was then further diluted 250-fold with a complete medium to prepare a series of working solutions at different concentrations. Subsequently, 100 µL of working solution (containing a 2-fold concentration series of the test compound) was added to each well, with duplicate wells set up for each concentration.
Seven days after compound addition (on Day 7), an Alamar Blue assay reagent (MCE, HY-111391 / CS-0040317) was added to measure the fluorescence intensity in each well. Wells containing the cells in the growth medium supplemented with 0.1% DMSO (Day 7) served as high-read control wells. The readouts from the wells containing the cells in the growth medium supplemented with 0.1% DMSO on the day of compound addition (Day 0) served as low-reading control well. GraphPad Prism software was used to calculate the concentration required to inhibit 50% of cell proliferation (GI50), which serves as a cell proliferation inhibition activity index.

Experiment [2] concerns MOLM-13 (carrying MLL-AF9). Description: Inhibition of proliferation of human tumor cells (Alamar Blue, 7 days), MOLM-13. Particulars: Homo sapiens, MOLM-13 cells (carrying MLL-AF9), method calls the value GI50. It counts as cell-based. Summed up:
as §1

Setting [3] is: fluorescence polarization, read-out: Menin-MLL IC50.
The mark [4] stands for this setting: Menin-MLL IC50, fluorescence polarization.

In the case of `CCN(C(=O)c1cc(F)ccc1-c1cc(C2=CCC(NCc3ccc(-c4cc(OC)c(OC)nn4)cc3)CC2)cn2cncc12)C(C)C` (stereo not drawn) [Example 17], the concentration for half-maximal inhibition (IC50) worked out at 9.5 nM at Menin-MLL (setting [3]), 17 nM in experiment [1] and 20 µM in the experiment on KG-1a (wild-type MLL).

As to `CCN(C(=O)c1cc(F)ccc1-c1cc(C2(F)CCN(C[C@H]3CC[C@H](NS(=O)(=O)CC)CC3)C2)cn2c(C)ncc12)C(C)C` (stereo partly drawn) [Example 73, N-ethyl-5-fluoro-2-[6-(3-fluoro-1-{[(1r,4r)-4-ethanesulfonamidocyclohexyl]methyl}pyrrolidin-3-yl)-3-methylimidazo[1,5-a]pyridin-8-yl]-N-(isopropyl) benzamide], the IC50 at Menin-MLL (setting [4]) was 28 nM; in experiment [1], 61 nM; in the experiment on KG-1a (wild-type MLL), 20 µM.

In the case of `CCN(C(=O)c1cc(F)ccc1-c1cc([C@H]2CCN(C[C@H]3CC[C@H](NS(=O)(=O)CC)CC3)C2)cn2cncc12)C(C)C` [Example 22-1, N-ethyl-5-fluoro-N-isopropyl-2-{6-[(3R)-1-{[(1r,4r)-4-ethanesulfonamidocyclohexyl]methyl}pyrrolidin-3-yl]imidazo[1,5-a]pyridin-8-yl}benzamide], the 50% inhibitory concentration (IC50) is 23 nM on Menin-MLL (setting [4]), 79 nM in experiment [1] and 20 µM in the experiment with KG-1a (wild-type MLL).

As for `CCN(C(=O)c1cc(F)ccc1-c1cc(C2CN([C@H](CN3CCN(C)CC3)C(C)C)C2)cc2c1cnn2C)C(C)C` [Example 402-2, N-ethyl-5-fluoro-2-(1-methyl-6-{1-[(2S)-3-methyl-1-(4-methylpiperazin-1-yl)butan-2-yl]azacyclobutan-3-yl}-1H-indazol-4-yl)-N-(isopropyl)benzamide], the IC50 on Menin-MLL (setting [3]) was 10 nM; in experiment [2] (168 h), 65 nM; in the experiment with KG-1a (wild-type MLL) it was 11 µM.

In the case of `CCN(C(=O)c1cc(F)ccc1-c1cc(C2CN([C@H](CCCN3CCC(OC)CC3)C(C)C)C2)cn2c(C)ncc12)C(C)C` [Example 389, N-ethyl-5-fluoro-2-(6-{1-[(3R)-6-(4-methoxypiperidin-1-yl)-2-methylhexan-3-yl]azacyclobutan-3-yl}-3-methylimidazo[1,5-a]pyridin-8-yl)-N-(isopropyl)benzamide], the IC50 on Menin-MLL (setting [3]) was 1.9 nM; in experiment [2] (168 h), 5.3 nM; in the experiment on KG-1a (wild-type MLL), 12 µM.

As for `CC(C)[C@@H](CCCN1CCN(C)CC1)N1CC(c2cc(-c3ccc(F)cc3C(=O)N3CCOC[C@H]3C)c3cnn(C)c3c2)C1` [Example 358], the IC50 was 13.5 nM on Menin-MLL (setting [4]); 91 nM in experiment [2] (MOLM-13, 168 h); greater than 20 µM with KG-1a (wild-type MLL).

Consider `CCN(C(=O)c1cc(F)ccc1-c1cc(C2CN([C@H](CN3CCN(C)CC3)C(C)C)C2)cn2c(C)ncc12)C(C)C` [Example 403-1, N-ethyl-5-fluoro-2-(3-methyl-6-{1-[(2S)-3-methyl-1-(4-methylpiperazin-1-yl)butan-2-yl]azacyclobutan-3-yl}imidazo[1,5-a]pyridin-8-yl)-N-(isopropyl)benzamide], for which the values for the 50% inhibitory concentration (IC50) (on Menin-MLL (setting [3]); in experiment [2] (168 h); in the experiment on KG-1a (wild-type MLL)) were 3.9 nM, 7.7 nM and 15 µM, respectively.

Turning to `Cc1nc(F)c2c(-c3ccc(F)cc3C(=O)N3CCOC[C@H]3C)cc(C3CN([C@H](CCCN4CCn5nccc5C4)C(C)C)C3)cn12` [Example 351, (3R)-4-[5-fluoro-2-(1-fluoro-3-methyl-6-{1-[(3R)-2-methyl-6-{4H,5H,6H,7H-pyrazolo[1,5-a]pyrazin-5-yl}hexan-3-yl]azacyclobutan-3-yl}imidazo[1,5-a]pyridin-8-yl)benzoyl]-3-methylmorpholine], the values for the IC50 (at Menin-MLL (setting [3]); in experiment [2] (168 h); with KG-1a (wild-type MLL)) were 12.5 nM, 44 nM and greater than 20 µM, respectively.

Consider `CCN(C(=O)c1cc(F)ccc1-c1cc(C2CN([C@H](CCCO)C(C)C)C2)cn2c(C)ncc12)C(C)C` [Example 396, N-ethyl-5-fluoro-2-(6-{1-[(3R)-6-hydroxyl-2-methylhexan-3-yl]azacyclobutan-3-yl}-3-methylimidazo[1,5-a]pyridin-8-yl)-N-(isopropyl)benzamide], for which the IC50 on Menin-MLL (setting [3]) is 3 nM; in experiment [2] (168 h), 22 nM; with KG-1a (wild-type MLL), greater than 20 µM.
